The source of these data is US20260274833A1 (NiKang Therapeutics, Inc., priority 2022, published 2026).

In general, pIC50 refers to the IC50 on a negative log10 scale, so that one unit is a factor of ten.

The target of the assay is T1, CDK2 (Homo sapiens, UniProt P24941).
T1 construct: endogenous in cells; host or cells: OVCAR3 cells
Nature of the assay: Phospho-RB measurement in OVCAR3 cells (HTRF phospho-RB cellular kit). The format is cell-based. Conditions: inhibition of RB phosphorylation at S807/811 (HTRF, TR-FRET ratio 665/620), 24 h compound treatment, 0.3 to 10,000 nM. In a few lines: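 IC50 came from a four-parameter logistic fit of the DMSO-normalized TR-FRET ratio (665/620 nm). That ratio reflects RB phosphorylation at S807/811, read with an HTRF antibody pair 4 h after adding lysate at room temperature.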
On the technique in general: Time-resolved FRET reads energy transfer from a long-lived donor to a nearby acceptor.

pIC50: −log10 of the molar value.

For the molecule `CC1(c2nc(-c3cccc(NS(=O)(=O)N4Cc5cccc(C(F)(F)F)c5C4)c3F)c(-c3ccnc(NC4CC5(C4)CS(=O)(=O)C5)n3)s2)CCOCC1` [Example 3, N-(3-(5-(2-((2,2-dioxido-2-thiaspiro-[3.3]-heptan-6-yl)amino)pyrimidin-4-yl)-2-(4-methyltetrahydro-2H-pyran-4-yl)thiazol-4-yl)-2-fluorophenyl)-4-(trifluoromethyl) isoindoline-2-sulfonamide], the pIC50 was 7.31.
To `CC(C)c1nc(-c2cccc(NS(=O)(=O)N3CCc4ccccc43)c2F)c(-c2ccnc(NC3CCN(S(=O)(=O)N4CCNCC4)CC3)n2)s1` [Example 178, N-(2-fluoro-3-(2-isopropyl-5-(2-((1-(piperazin-1-ylsulfonyl)piperidin-4-yl)amino)pyrimidin-4-yl)thiazol-4-yl)phenyl)indoline-1-sulfonamide] belongs 6.69; to `COc1cccc2c1CN(S(=O)(=O)Nc1cccc(-c3nc(C4(C)CCOCC4)sc3-c3ccnc(N[C@H]4[C@@H]5CS(=O)(=O)C[C@@H]54)n3)c1F)C2` [Example 7, N-(3-(5-(2-(((1R, 5S,6r)-3,3-dioxido-3-thiabicyclo[3.1.0]hexan-6-yl)amino)-pyrimidin-4-yl)-2-(4-methyltetrahydro-2H-pyran-4-yl)thiazol-4-yl)-2-fluorophenyl)-4-methoxyisoindoline-2-sulfonamide], 8.04; to `CC(C)(C)c1nc(-c2cccc(NS(=O)(=O)N3CCC4(CCC4)C3)c2F)c(-c2ccnc(NC3CCN(S(C)(=O)=O)CC3)n2)s1` [Example 174, N-(3-(2-(tert-butyl)-5-(2-((1-(methylsulfonyl)-piperidin-4-yl)amino)-pyrimidin-4-yl)thiazol-4-yl)-2-fluoro-phenyl)-6-azaspiro [3.4]octane-6-sulfonamide], 6.07.
On to `CC(C)(C)c1nc(-c2cccc(NS(=O)(=O)N3Cc4ccncc4C3)c2F)c(-c2ccnc(NC3CC4(C3)CS(=O)(=O)C4)n2)s1` [Example 187, N-(3-(2-(tert-butyl)-5-(2-((2,2-dioxido-2-thiaspiro[3.3]heptan-6-yl)amino)-pyrimidin-4-yl)thiazol-4-yl)-2-fluoro-phenyl)-1,3-dihydro-2H-pyrrolo[3,4-c]-pyridine-2-sulfonamide], for which the pIC50 is 6.71.
As for `CC(C)(C)c1nc(-c2cccc(NS(=O)(=O)N3Cc4ccccc4C3)c2F)c(-c2ccnc(NC3CCN(S(=O)(=O)N4CCNCC4)CC3)n2)s1` [Example 113, N-(3-(2-(tert-butyl)-5-(2-((1-(piperazin-1-ylsulfonyl)piperidin-4-yl)amino)-pyrimidin-4-yl)thiazol-4-yl)-2-fluoro-phenyl)isoindoline-2-sulfonamide], the pIC50 is 6.92.
`CC(C)(C)c1nc(-c2cccc(NS(=O)(=O)N3Cc4cccc(C(F)(F)F)c4C3)c2F)c(-c2ccnc(NC3CC4(C3)CS(=O)(=O)C4)n2)s1` [Example 201, N-(3-(2-(tert-butyl)-5-(2-((2,2-dioxido-2-thiaspiro[3.3]heptan-6-yl)amino)-pyrimidin-4-yl)thiazol-4-yl)-2-fluorophenyl)-4-(trifluoromethyl)-isoindoline-2-sulfonamide]: the pIC50 was 7.12.
To `CC(C)(C)c1nc(-c2cccc(NS(=O)(=O)N3CCc4ccc(S(C)(=O)=O)cc43)c2F)c(-c2ccnc(NC3CC4(C3)CS(=O)(=O)C4)n2)s1` [Example 261, N-(3-(2-(tert-butyl)-5-(2-((2,2-dioxido-2-thiaspiro[3.3]heptan-6-yl)amino)-pyrimidin-4-yl)thiazol-4-yl)-2-fluoro-phenyl)-6-(methylsulfonyl)-indoline-1-sulfonamide] belongs 6.16.
As for `CC(C)(C)c1nc(-c2cccc(NS(=O)(=O)N3Cc4cccc(C5CCCCC5)c4C3)c2F)c(-c2ccnc(NC3CCN(S(C)(=O)=O)CC3)n2)s1` [Example 228, N-(3-(2-(tert-butyl)-5-(2-((1-(methylsulfonyl)-piperidin-4-yl)amino)-pyrimidin-4-yl)thiazol-4-yl)-2-fluoro-phenyl)-4-cyclohexyliso-indoline-2-sulfonamide], the pIC50 is 5.82.
Consider `CC(C)(C)c1nc(-c2cccc(NS(=O)(=O)N3Cc4cccc(OCC#N)c4C3)c2F)c(-c2ccnc(NC3CCN(S(C)(=O)=O)CC3)n2)s1` [Example 247, N-(3-(2-(tert-butyl)-5-(2-((1-(methylsulfonyl)-piperidin-4-yl)amino)-pyrimidin-4-yl)thiazol-4-yl)-2-fluoro-phenyl)-4-(cyanomethoxy)-isoindoline-2-sulfonamide], for which the pIC50 is 6.93.
The same measure for `CC(C)(C)c1nc(-c2cccc(NS(=O)(=O)N3Cc4cccnc4C3)c2F)c(-c2ccnc(NC3CCN(S(C)(=O)=O)CC3)n2)s1` [Example 95, N-(3-(2-(tert-butyl)-5-(2-((1-(methylsulfonyl)piperidin-4-yl)amino)-pyrimidin-4-yl)thiazol-4-yl)-2-fluoro-phenyl)-5,7-dihydro-6H-pyrrolo-[3,4-b]pyridine-6-sulfonamide]: 6.21; for `CN(C)Cc1cccc(Nc2nccc(-c3sc(C(C)(C)C)nc3-c3cccc(NS(=O)(=O)N4CCc5ccc(C#N)cc54)c3F)n2)c1` [Example 241, N-(3-(2-(tert-butyl)-5-(2-((3-((dimethylamino)-methyl)phenyl)-amino)pyrimidin-4-yl)thiazol-4-yl)-2-fluorophenyl)-6-cyanoindoline-1-sulfonamide]: 6.28; for `CC(C)(C)c1nc(-c2cccc(NS(=O)(=O)N3CCc4c(C#N)cccc43)c2F)c(-c2ccnc(NC3CCN(S(=O)(=O)N4CCNCC4)CC3)n2)s1` [Example 124, N-(3-(2-(tert-butyl)-5-(2-((1-(piperazin-1-ylsulfonyl)piperidin-4-yl)amino)-pyrimidin-4-yl)thiazol-4-yl)-2-fluoro-phenyl)-4-cyanoindoline-1-sulfonamide]: 6.82.
With `O=S1(=O)CC2(CC(Nc3nccc(-c4sc(C56CC(C5)C6)nc4-c4cccc(NS(=O)(=O)N5CCc6cc(Cl)ccc65)c4F)n3)C2)C1` [Example 47, N-(3-(2-(bicyclo [1.1.1]pentan-1-yl)-5-(2-((2,2-dioxido-2-thiaspiro[3.3]heptan-6-yl)amino)-pyrimidin-4-yl)thiazol-4-yl)-2-fluorophenyl)-5-chloroindoline-1-sulfonamide], the pIC50 was 6.46.
To `COc1cccc2c1CN(S(=O)(=O)Nc1cccc(-c3nc(C(C)(C)C)sc3-c3ccnc(NC4CCN(S(C)(=O)=O)CC4)n3)c1F)C2` [Example 78, N-(3-(2-(tert-butyl)-5-(2-((1-(methylsulfonyl)-piperidin-4-yl)amino)-pyrimidin-4-yl)thiazol-4-yl)-2-fluoro-phenyl)-4-methoxyisoindoline-2-sulfonamide] belongs 7.18; to `CC(C)(C)c1nc(-c2cccc(NS(=O)(=O)N3CCc4ccc(C#N)cc43)c2F)c(-c2ccnc(Nc3ccc(N4CCN(C5COC5)CC4)cc3)n2)s1` [Example 250, N-(3-(2-(tert-butyl)-5-(2-((4-(4-(oxetan-3-yl)-piperazin-1-yl)phenyl)amino)-pyrimidin-4-yl)thiazol-4-yl)-2-fluoro-phenyl)-6-cyanoindoline-1-sulfonamide], 6.24; to `CN1CC2CCC(C1)N2c1nc(-c2cccc(NS(=O)(=O)N3CCc4ccc(C(F)(F)F)cc43)c2F)c(-c2ccnc(NC3CC4(C3)CS(=O)(=O)C4)n2)s1` [Example 44, N-(3-(5-(2-((2,2-dioxido-2-thiaspiro-[3.3]heptan-6-yl)amino)pyrimidin-4-yl)-2-(3-methyl-3,8-diazabicyclo[3.2.1]-octan-8-yl)thiazol-4-yl)-2-fluorophenyl)-6-(trifluoromethyl) indoline-1-sulfonamide], 7.25.
`CC1CCN(S(=O)(=O)Nc2cccc(-c3nc(C(C)(C)C)sc3-c3ccnc(NC4CCN(S(C)(=O)=O)CC4)n3)c2F)CC1` [Example 63, N-(3-(2-(tert-butyl)-5-(2-((1-(methylsulfonyl)-piperidin-4-yl)amino)-pyrimidin-4-yl)thiazol-4-yl)-2-fluoro-phenyl)-4-methylpiperidine-1-sulfonamide]: the pIC50 is 6.17.
Consider `CN(c1cccc2c1NCC2)S(=O)(=O)Nc1cccc(-c2nc(C(C)(C)C)sc2-c2ccnc(NC3CCN(S(C)(=O)=O)CC3)n2)c1F` [Example 259, N-(3-(2-(tert-butyl)-5-(2-((1-(methylsulfonyl)-piperidin-4-yl)amino)-pyrimidin-4-yl)thiazol-4-yl)-2-fluoro-phenyl)-(N-methyl-N-indolin-7-yl)-amine-sulfonamide], for which the pIC50 is 5.69.
Take `Cn1cc2c(n1)CN(S(=O)(=O)Nc1cccc(-c3nc(C(C)(C)C)sc3-c3ccnc(Nc4ccc(N5CCNCC5)cc4)n3)c1F)C2` [Example 252, N-(3-(2-(tert-butyl)-5-(2-((4-(piperazin-1-yl)-phenyl)amino)pyrimidin-4-yl)-thiazol-4-yl)-2-fluorophenyl)-2-methyl-2,6-dihydropyrrolo-[3,4-c]pyrazole-5(4H)-sulfonamide]: the pIC50 is 5.48.
Take `CN1CC2CCC(C1)N2c1nc(-c2cccc(NS(=O)(=O)N3Cc4cccc(C(F)(F)F)c4C3)c2F)c(-c2ccnc(NC3CC4(C3)CS(=O)(=O)C4)n2)s1` [Example 32, N-(3-(5-(2-((2,2-dioxido-2-thiaspiro-[3.3]-heptan-6-yl)amino)pyrimidin-4-yl)-2-(3-methyl-3,8-diazabicyclo[3.2.1]-octan-8-yl)-thiazol-4-yl)-2-fluoro-phenyl)-4-(trifluoro-methyl)isoindoline-2-sulfonamide]: the pIC50 was 7.64.
To `CC(C)(C)c1nc(-c2cccc(NS(=O)(=O)N3CCCCC3c3ccccc3)c2F)c(-c2ccnc(NC3CCN(S(C)(=O)=O)CC3)n2)s1` (stereo not shown) [Example 67, N-(3-(2-(tert-butyl)-5-(2-((1-(methylsulfonyl)-piperidin-4-yl)amino)-pyrimidin-4-yl)thiazol-4-yl)-2-fluoro-phenyl)-2-phenylpiperidine-1-sulfonamide] belongs 5.08.
